In PubChem BioAssay AID248 (DTP/NCI, 2004):
Several values for one entry are separate records, joined by “and”; a condition that tells them apart may be missing. Equal values may be shown once. Inconclusive results and toxic doses are left out.

System: L1210 leukemia ip in BDF1 mice, survival T/C
Assay: NCI In Vivo Anticancer Drug Screen. Data for tumor model L1210 Leukemia (intraperitoneal) in B6D2F1 (BDF1) mice
Details: endpoint: mean survival time, higher = longer survival
In short: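 Value reflects the ratio of survival in compound-treated mice to survival in vehicle-treated controls, with both groups carrying the same transplanted tumor.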

[1] = dose: 100.0 mg/kg/injection, schedule: Q01DX001 (ip), vehicle: saline
[2] = dose: 200.0 mg/kg/injection, schedule: Q01DX001 (ip), vehicle: saline
[3] = dose: 400.0 mg/kg/injection, schedule: Q01DX001 (ip), vehicle: saline
[4] = dose: 100.0 mg/kg/injection, schedule: Q01DX009 (ip), vehicle: saline with Tween-80
[5] = dose: 200.0 mg/kg/injection, schedule: Q01DX009 (ip), vehicle: saline with Tween-80
[6] = dose: 100.0 mg/kg/injection, schedule: Q01DX009 (ip), vehicle: Klucel (hydroxypropylcellulose) (HPC)
[7] = dose: 200.0 mg/kg/injection, schedule: Q01DX009 (ip), vehicle: Klucel (hydroxypropylcellulose) (HPC)
[8] = dose: 400.0 mg/kg/injection, schedule: Q01DX009 (ip), vehicle: Klucel (hydroxypropylcellulose) (HPC)
[9] = dose: 100.0 mg/kg/injection, schedule: Q04DX003 (ip), vehicle: Klucel (hydroxypropylcellulose) (HPC)
[10] = dose: 200.0 mg/kg/injection, schedule: Q04DX003 (ip), vehicle: Klucel (hydroxypropylcellulose) (HPC)
[11] = dose: 400.0 mg/kg/injection, schedule: Q04DX003 (ip), vehicle: Klucel (hydroxypropylcellulose) (HPC)
[12] = dose: 100.0 mg/kg/injection, schedule: Q04DX003 (ip), vehicle: saline with Tween-80
[13] = dose: 200.0 mg/kg/injection, schedule: Q04DX003 (ip), vehicle: saline with Tween-80
[14] = dose: 100.0 mg/kg/injection, schedule: Q01DX001 (ip), vehicle: carboxymethylcellulose (CMC)
[15] = dose: 400.0 mg/kg/injection, schedule: Q01DX001 (ip), vehicle: carboxymethylcellulose (CMC)

For `O=C(Nc1ccc(C2=NCCN2)cc1)Nc1cccc(C(=O)Nc2ccc(C3=NCCN3)cc2)c1`, the T/C (dose: 1.0 mg/kg/injection, schedule: Q01DX Z (ip), vehicle: carboxymethylcellulose (CMC)) was 106 % of control, the T/C (dose: 2.0 mg/kg/injection, schedule: Q01DX Z (ip), vehicle: carboxymethylcellulose (CMC)) was 117 % of control and the T/C (dose: 3.75 mg/kg/injection, schedule: Q01DX Z (ip), vehicle: saline) was 97 % of control. For the same molecule, the T/C (dose: 4.0 mg/kg/injection, schedule: Q01DX Z (ip), vehicle: carboxymethylcellulose (CMC)) was 122 % of control, the T/C (dose: 7.5 mg/kg/injection, schedule: Q01DX Z (ip), vehicle: saline) was 100 % of control and the T/C (dose: 8.0 mg/kg/injection, schedule: Q01DX Z (ip), vehicle: carboxymethylcellulose (CMC)) was 150 % of control and 158 % of control. For the same molecule, the T/C (dose: 15.0 mg/kg/injection, schedule: Q01DX Z (ip), vehicle: saline) was 110 % of control, the T/C (dose: 16.0 mg/kg/injection, schedule: Q01DX Z (ip), vehicle: carboxymethylcellulose (CMC)) was 225 % of control and the T/C (dose: 30.0 mg/kg/injection, schedule: Q01DX Z (ip), vehicle: carboxymethylcellulose (CMC)) was 154 % of control. The T/C (dose: 31.0 mg/kg/injection, schedule: Q01DX Z (ip), vehicle: carboxymethylcellulose (CMC)) was 250 % of control, the T/C (dose: 62.0 mg/kg/injection, schedule: Q01DX Z (ip), vehicle: carboxymethylcellulose (CMC)) was 207 % of control and 320 % of control and the T/C (dose: 120.0 mg/kg/injection, schedule: Q01DX Z (ip), vehicle: carboxymethylcellulose (CMC)) was 198 % of control. The T/C (dose: 120.0 mg/kg/injection, schedule: Q01DX Z (oral), vehicle: saline) was 101 % of control, the T/C (dose: 125.0 mg/kg/injection, schedule: Q01DX Z (ip), vehicle: carboxymethylcellulose (CMC)) was 200 % of control and the T/C (dose: 240.0 mg/kg/injection, schedule: Q01DX Z (ip), vehicle: saline) was 233 % of control. For the same molecule, the T/C (dose: 240.0 mg/kg/injection, schedule: Q01DX Z (oral), vehicle: saline) was 101 % of control and the T/C (dose: 480.0 mg/kg/injection, schedule: Q01DX Z (oral), vehicle: saline) was 104 % of control.
With `O=P(O)(O)CN(CP(=O)(O)O)CP(=O)(O)O` the T/C [1] was 101 % of control, the T/C [2] was 94 % of control and the T/C [3] was 89 % of control.
For `CCS(=O)(=O)Nc1ccc(Nc2c3ccccc3nc3ccccc23)c(OC)c1`, the T/C (dose: 2.5 mg/kg/injection, schedule: Q01DX009 (ip), vehicle: Klucel (hydroxypropylcellulose) (HPC)) was 152 % of control, the T/C (dose: 5.0 mg/kg/injection, schedule: Q01DX009 (ip), vehicle: Klucel (hydroxypropylcellulose) (HPC)) was 168 % of control and the T/C (dose: 5.0 mg/kg/injection, schedule: Q01DX009 (ip), vehicle: saline) was 155 % of control. The T/C (dose: 10.0 mg/kg/injection, schedule: Q01DX009 (ip), vehicle: Klucel (hydroxypropylcellulose) (HPC)) was 163 % of control, the T/C (dose: 10.0 mg/kg/injection, schedule: Q01DX009 (ip), vehicle: saline) was 216 % of control and the T/C (dose: 20.0 mg/kg/injection, schedule: Q01DX009 (ip), vehicle: Klucel (hydroxypropylcellulose) (HPC)) was 86 % of control.
`C=CCCCCC/C=C/CCCCCC` was tested, and the T/C [4] was 89 % of control and the T/C [5] was 92 % of control.
For `COc1ccc(OCCO)cc1`, the T/C [6] was 95 % of control, the T/C (dose: 100.0 mg/kg/injection, schedule: Q04DX002 (ip), vehicle: Klucel (hydroxypropylcellulose) (HPC)) was 96 % of control and the T/C [7] was 98 % of control. For the same molecule, the T/C (dose: 200.0 mg/kg/injection, schedule: Q04DX002 (ip), vehicle: Klucel (hydroxypropylcellulose) (HPC)) was 93 % of control, the T/C [8] was 103 % of control and the T/C (dose: 400.0 mg/kg/injection, schedule: Q04DX002 (ip), vehicle: Klucel (hydroxypropylcellulose) (HPC)) was 100 % of control.
For `COc1ccc(C)cc1NC(C)=O`, the T/C [1] was 98 % of control, the T/C [2] was 100 % of control and the T/C [3] was 98 % of control.
In the case of `CP1(=S)CCC(=O)CC1`, the T/C (dose: 100.0 mg/kg/injection, schedule: Q04DX002 (ip), vehicle: saline with Tween-80) is reported as 91 % of control, the T/C (dose: 200.0 mg/kg/injection, schedule: Q04DX002 (ip), vehicle: saline with Tween-80) is reported as 95 % of control and the T/C (dose: 400.0 mg/kg/injection, schedule: Q04DX002 (ip), vehicle: saline with Tween-80) is reported as 98 % of control.
In the case of `CN(C)Cc1cc(C(C)(C)C)ccc1O`, the T/C (dose: 100.0 mg/kg/injection, schedule: Q04DX003 (ip), vehicle: saline) is reported as 95 % of control and the T/C (dose: 200.0 mg/kg/injection, schedule: Q04DX003 (ip), vehicle: saline) is reported as 91 % of control.
With `N#CC1CC(c2ccccc2)Nc2ccccc2N1` (stereo not given) the T/C [9] was 94 % of control, the T/C [10] was 98 % of control and the T/C [11] was 96 % of control.
`CC(=O)Nc1ccc(Cc2ccc(NC(C)=O)cc2)cc1` was tested, and the T/C (dose: 75.0 mg/kg/injection, schedule: Q01DX001 (ip), vehicle: Klucel (hydroxypropylcellulose) (HPC)) was 93 % of control, the T/C [12] was 101 % of control and the T/C (dose: 150.0 mg/kg/injection, schedule: Q01DX001 (ip), vehicle: Klucel (hydroxypropylcellulose) (HPC)) was 100 % of control. For the same molecule, the T/C [13] was 93 % of control, the T/C (dose: 300.0 mg/kg/injection, schedule: Q01DX001 (ip), vehicle: Klucel (hydroxypropylcellulose) (HPC)) was 98 % of control and the T/C (dose: 400.0 mg/kg/injection, schedule: Q04DX003 (ip), vehicle: saline with Tween-80) was 97 % of control.
With `Cc1ccc(CSc2ssc(=S)c2-c2ccccc2)cc1` the T/C [4] was 101 % of control, the T/C (dose: 100.0 mg/kg/injection, schedule: Q04DX003 (ip), vehicle: acetone) was 99 % of control and the T/C [5] was 97 % of control. For the same molecule, the T/C (dose: 200.0 mg/kg/injection, schedule: Q04DX003 (ip), vehicle: acetone) was 98 % of control, the T/C (dose: 400.0 mg/kg/injection, schedule: Q01DX009 (ip), vehicle: saline with Tween-80) was 95 % of control and the T/C (dose: 400.0 mg/kg/injection, schedule: Q04DX003 (ip), vehicle: acetone) was 91 % of control.
`Nc1nc(=S)[nH]c(N)c1N` was tested, and the T/C (dose: 125.0 mg/kg/injection, schedule: Q01DX Z (ip), vehicle: methylcellulose (MC)) was 93 % of control.
With `NC(CS(N)(=O)=O)C(=O)O` (stereo not given) the T/C (dose: 75.0 mg/kg/injection, schedule: Q01DX001 (ip), vehicle: saline) was 97 % of control, the T/C (dose: 150.0 mg/kg/injection, schedule: Q01DX001 (ip), vehicle: saline) was 103 % of control and the T/C (dose: 300.0 mg/kg/injection, schedule: Q01DX001 (ip), vehicle: saline) was 102 % of control.
In the case of `CCOC(=O)NC(NC(=O)OCC)c1ccc(Cl)cc1Cl`, the T/C [14] is reported as 88 % of control and the T/C [15] is reported as 88 % of control.
With `CC[P+](CCCCCCCCC[P+](CC)(Cc1ccccc1)c1ccccc1)(Cc1ccccc1)c1ccccc1` (stereo not given) the T/C (dose: 5.0 mg/kg/injection, schedule: Q01DX001 (ip), vehicle: saline) was 105 % of control.
`O=c1[nH]/c(=C\c2ccc3c(c2)OCO3)c(=O)[nH]/c1=C\c1ccc2c(c1)OCO2` was tested, and the T/C [6] was 94 % of control, the T/C [9] was 93 % of control and the T/C [7] was 86 % of control. For the same molecule, the T/C [10] was 96 % of control, the T/C [8] was 89 % of control and the T/C [11] was 98 % of control.
With `CNS(=O)(=O)c1ccccc1C(=N)c1ccccc1` the T/C [1] was 97 % of control, the T/C [2] was 97 % of control and the T/C [3] was 100 % of control.
With `CN(Cc1cnc2nc(N)nc(N)c2n1)c1c(F)cc(C(=O)NC(CCC(=O)O)C(=O)O)cc1F` (stereo not given) the T/C (dose: 1.5 mg/kg/injection, schedule: Q01DX009 (ip), vehicle: sodium bicarbonate) was 114 % of control and the T/C (dose: 12.0 mg/kg/injection, schedule: Q01DX009 (ip), vehicle: sodium bicarbonate) was 154 % of control.
`CCCCOP(=O)(/C=C/c1cccs1)OCCCC` was tested, and the T/C [12] was 100 % of control and the T/C [13] was 94 % of control.
`CCS(=O)(=O)CCOC(=O)c1ccc([N+](=O)[O-])cc1` was tested, and the T/C [14] was 100 % of control, the T/C (dose: 200.0 mg/kg/injection, schedule: Q01DX001 (ip), vehicle: carboxymethylcellulose (CMC)) was 105 % of control and the T/C [15] was 98 % of control.
